Here are results for 35 compounds from paper PMC7496920, “Structure‐Activity Relationship of Phenylpyrazolones against Trypanosoma cruzi” (Chemmedchem, 2020).

Data set [1] has as its system MRC‐5 cells. Nature of the data set: MRC‐5 cytotoxicity in vitro assay (resazurin). Type of data set: cell-based, human. The note with it: for IC50: Homo sapiens, MRC5, 72 h, MRC‐5‐SV2 cytotoxicity, 72 h, SD ±0.2, n>=2, read-out: pIC50 MRC‐5 (converted). Here is the method:
MRC‐5 cytotoxicity in vitro assay: MRC‐5‐SV2 cells, originally from a human diploid lung cell line, were cultivated in MEM, supplemented with L‐glutamine (20 mM), 16.5 mM sodium hydrogen carbonate and 5 % FCSi. For the assay, 10^4 cells/well were seeded onto the test plates containing the pre‐diluted sample and incubated at 37 °C and 5 % CO2 for 72 h. Cell viability was assessed fluorometrically 4 h after addition of resazurin (excitation 550 nm, emission 590 nm). The results are expressed as percentage reduction in cell viability compared to untreated controls. Tamoxifen was used as a reference compound.

In data set [2] the test system is intracellular amastigotes of T. cruzi (Tulahuen strain). Also noted: method as in earlier work. The note with it: earlier hit optimization; cited from earlier work.
Data set [3] relates to MRC‐5 cells. The arrangement: method as in earlier work. The note with it: earlier hit optimization; cited from earlier work.
The subject of data set [4] is intracellular amastigotes of T. cruzi (Tulahuen strain). The data set is described as follows: Trypanosoma cruzi in vitro susceptibility assay on intracellular amastigotes (β‐galactosidase strain). Type of data set: cell-based. The note with it: for IC50: Trypanosoma cruzi, TULAHUEN, MRC-5 SV2, 168 h, intracellular amastigotes, Tulahuen CL2 β‐galactosidase strain in MRC‐5SV2 cells, 7 d, SD ±0.2, n>=2, read-out: pIC50 T. cruzi (converted); for SI (selectivity index): cytotoxicity (IC50, MRC‐5) divided by T. cruzi activity (IC50). Here is the method: Trypanosoma cruzi in vitro assay: Bloodstream trypomastigotes (BT) of the Y strain of T. cruzi were obtained by cardiac puncture of infected Swiss Webster mice on the parasitaemia peak.12 For the standard in vitro susceptibility assay on intracellular amastigotes, T. cruzi Tulahuen CL2, β‐galactosidase strain (DTU VI, nifurtimox‐sensitive) was used. The strain is maintained on MRC‐5SV2 (human lung fibroblast) cells in MEM medium, supplemented with […] L‐glutamine, 16.5 mM NaHCO3, and 5 % heat inactivated fetal calf serum (FCSi). […] The color reaction was read at 540 nm after 4 h, and absorbance values were expressed as a percentage of the blank controls. All cultures and assays are conducted at 37 °C under 5 % CO2.13 Benznidazole was used as a reference compound.

Take `COc1ccc(C2=NN(C(C)C)C(=O)C2(C)C)cc1-c1cccnc1` [compound 3, 2‐isopropyl‐5‐(4‐methoxy‐3‐(pyridin‐3‐yl)phenyl)‐4,4‐dimethyl‐2,4‐dihydro‐3H‐pyrazol‐3‐one]: the IC50 is 39.8 µM in the data set on MRC‐5 cells [1] and 0.398 µM in data set [4]. In data set [2], the “pIC50 T. cruzi” value is 6.4. In the data set on MRC‐5 cells [3], the “pIC50 MRC‐5” value was 4.4. Also, the “SI (selectivity index)” value in data set [4] was 100.
As for `COc1cc(C2=NN(C(C)C)C(=O)C2(C)C)cc(-c2cccnc2)c1` [compound 57], the IC50 in the data set with MRC‐5 cells [1] was 31.6 µM; in data set [4], 7.94 µM. Besides, the “SI (selectivity index)” value in data set [4] was 4.
Turning to `COc1cc(C2=NN(C(C)C)C(=O)C2(C)C)cc(-c2cccnc2)c1OC` [compound 58], the IC50 with MRC‐5 cells [1] is over 63.1 µM. In addition, in data set [4], the IC50 was 50.1 µM and the “SI (selectivity index)” value is listed as over 1.
The matching figures for `CC(C)N1N=C(c2cc3c(c(-c4cccnc4)c2)OCC3)C(C)(C)C1=O` [compound 59, 1‐Isopropyl‐4,4‐dimethyl‐3‐(7‐(pyridin‐3‐yl)‐2,3‐dihydrobenzofuran‐5‐yl)‐1H‐pyrazol‐5(4H)‐one]: 25.1 µM, 1.58 µM and 16.
In the same order, the values of `COc1c(Br)cc(C2=NN(C(C)C)C(=O)C2(C)C)cc1-c1cccnc1` [compound 60] are 25.1 µM, 7.94 µM and 3.
In the same order, the values of `CC(C)N1N=C(c2cccc(-c3cccnc3)c2)C(C)(C)C1=O` [compound 61] are 63.1 µM, 3.16 µM and 20.
On to `CC(C)N1N=C(c2ccc(F)c(-c3cccnc3)c2)C(C)(C)C1=O` [compound 62], for which the IC50 was over 63.1 µM with MRC‐5 cells [1] and about 3.16 µM in data set [4]. Besides, in data set [4], the “SI (selectivity index)” value is over 10.
The matching figures for `CC(C)N1N=C(c2ccc(Cl)c(-c3cccnc3)c2)C(C)(C)C1=O` [compound 63]: 15.8 µM, about 3.16 µM and 5.
In the same order, the values of `Cc1ccc(C2=NN(C(C)C)C(=O)C2(C)C)cc1-c1cccnc1` [compound 64] are over 63.1 µM, about 3.16 µM and over 25.
The matching figures for `COc1ccc(C2=NN(C(C)C)C(=O)C2(C)C)c(F)c1-c1cccnc1` [compound 65]: over 63.1 µM, 2.51 µM and over 25.
For the compound `COc1cc(F)c(C2=NN(C(C)C)C(=O)C2(C)C)cc1-c1cccnc1` [compound 66], the IC50 with MRC‐5 cells [1] was over 63.1 µM. In data set [4], the IC50 is 5.01 µM and the “SI (selectivity index)” value is listed as over 13.
The matching figures for `COc1c(C)cc(C2=NN(C(C)C)C(=O)C2(C)C)cc1-c1cccnc1` [compound 67]: over 63.1 µM, 12.6 µM and over 5.
The matching figures for `COc1cc(C)c(C2=NN(C(C)C)C(=O)C2(C)C)cc1-c1cccnc1` [compound 68]: over 63.1 µM, 31.6 µM and over 2.
The matching figures for `CC(C)N1N=C(c2ccc(C#N)c(-c3cccnc3)c2)C(C)(C)C1=O` [compound 74]: over 63.1 µM, 50.1 µM and over 1.
Regarding `COc1ccc(C2=NN(C(C)C)C(=O)C23CCCC3)cc1-c1cccnc1` [compound 89], the IC50 is 31.6 µM in the data set on MRC‐5 cells [1] and 6.31 µM in data set [4].
In the same order, the values of `COc1ccc(C2=NN(C(C)C)C(=O)C23CC=CC3)cc1-c1cccnc1` [compound 90] are 39.8 µM and 7.94 µM.
Regarding `COc1ccc(C2=NN(C(C)C)C(=O)C23CCN(C)CC3)cc1-c1cccnc1` [compound 91], the IC50 in the data set on MRC‐5 cells [1] is 50.1 µM. Besides, in data set [4], the IC50 was 31.6 µM and the “SI (selectivity index)” value worked out at 2.
The matching figures for `COc1ccc(C2=NN(C(C)C)C(=O)C23CCOCC3)cc1-c1cccnc1` [compound 92]: 31.6 µM, 31.6 µM and 1.
The matching figures for `COc1ccc(-c2cc3n(n2)CCO3)cc1-c1cccnc1` [compound 95]: 50.1 µM, 31.6 µM and 2.
`COc1ccc(Cc2nnc(N)s2)cc1-c1cccnc1` [compound 98]: the IC50 (in the data set with MRC‐5 cells [1]; in data set [4]) was over 63.1 µM in each case.
For `COc1ccc(C2=NN(C(C)C)C(=S)C2(C)C)cc1-c1cccnc1` [compound 99], in the data set on MRC‐5 cells [1], the IC50 was 15.8 µM. In data set [4], the IC50 was 0.501 µM and the “SI (selectivity index)” value is recorded as 32.
The matching figures for `COc1ccc(C2=NN(C(C)C)C(=O)CC2)cc1-c1cccnc1` [compound 104]: 25.1 µM, 10 µM and 3.
In the same order, the values of `COc1ccc(C2=Nn3c(C4CC4)nnc3C2(C)C)cc1-c1cccnc1` [compound 109] are over 63.1 µM, 15.8 µM and over 4.
Regarding `COc1ccc(-c2nc(C(C)(C)C)co2)cc1-c1cccnc1` [compound 120, 4‐(tert‐Butyl)‐2‐(4‐methoxy‐3‐(pyridin‐3‐yl)phenyl)oxazole], the IC50 with MRC‐5 cells [1] is under 6.31 µM; in data set [4], 2 µM. In addition, the “SI (selectivity index)” value in data set [4] came to 3.
In the same order, the values of `COc1ccc(-c2nc(-c3ccccc3)co2)cc1-c1cccnc1` [compound 121] are under 6.31 µM, 1 µM and 3.
As for `COc1ccc(-c2nc(-c3cccc(F)c3)co2)cc1-c1cccnc1` [compound 122], the IC50 in data set [4] is 1.26 µM.
With `COc1ccc(-c2nc(-c3ccc(F)cc3)co2)cc1-c1cccnc1` [compound 123], the “MRC‐5 toxicity at 62 μM” value in the data set on MRC‐5 cells [1] (62 μM, limit concentration screened) was “no MRC‐5 toxicity”. For the same compound, the IC50 in the data set with MRC‐5 cells [1] was over 63.1 µM. Also, in data set [4], the IC50 was 0.631 µM and the “SI (selectivity index)” value is recorded as over 100.
As for `COc1ccc(-c2nc(-c3ccccc3)c(C)o2)cc1-c1cccnc1` [compound 124], the IC50 in the data set on MRC‐5 cells [1] is under 6.31 µM. In data set [4], the IC50 is 2 µM and the “SI (selectivity index)” value amounted to 3.
For `COc1ccc(-c2nnc(C(C)C)o2)cc1-c1cccnc1` [compound 132, 2‐Isopropyl‐5‐(4‐methoxy‐3‐(pyridin‐3‐yl)phenyl)‐1,3,4‐oxadiazole], the results for the IC50 (in the data set with MRC‐5 cells [1]; in data set [4]) were over 63.1 µM and 20 µM, respectively. The “SI (selectivity index)” value in data set [4] is recorded as over 3.
The matching figures for `COc1ccc(-c2nnc(C3CCCC3)o2)cc1-c1cccnc1` [compound 133]: over 63.1 µM, 10 µM and over 6.
The matching figures for `COc1ccc(-c2nnc(CC3CCOCC3)o2)cc1-c1cccnc1` [compound 134]: over 63.1 µM, 25.1 µM and over 3.
The matching figures for `COc1ccc(-c2nnc(-c3ccccc3)o2)cc1-c1cccnc1` [compound 135]: over 63.1 µM, about 1.58 µM and over 40.
For `COc1ccc(-c2nnc(-c3cccc(F)c3)o2)cc1-c1cccnc1` [compound 136], the IC50 was over 63.1 µM with MRC‐5 cells [1] and about 1.58 µM in data set [4]. Further, the “SI (selectivity index)” value in data set [4] is recorded as over 32.
In the same order, the values of `COc1ccc(-c2nc(C3CC3)cs2)cc1-c1cccnc1` [compound 141] are 7.94 µM, 2.51 µM and 3.
For the compound `COc1ccc(-c2nc(-c3ccccc3)cs2)cc1-c1cccnc1` [compound 142], the IC50 with MRC‐5 cells [1] was 2.51 µM. Moreover, in data set [4], the IC50 was 2 µM and the “SI (selectivity index)” value was 1.
